According to publication PMC10253817, “Design, Pharmacological Characterization, and Molecular Docking of Minimalist Peptidomimetic Antagonists of α4β1 Integrin” (International Journal of Molecular Sciences, 2023):

Columns and labels:
Format in all cases: cell-based
α4β1 integrin [1] = target: T1, α4β1 integrin (Homo sapiens, UniProt P05556+P13612); experiment: α4β1 integrin-mediated Jurkat cell adhesion to VCAM-1; conditions: Jurkat cell adhesion to VCAM-1 (2 μg/mL); antag. = reduced cell adhesion; mean ± SD
T1 construct: Jurkat E6.1 cell line, which endogenously expresses α4β1 integrin; host or cells: Jurkat E6.1
T1 sequence (P13612 34-1032): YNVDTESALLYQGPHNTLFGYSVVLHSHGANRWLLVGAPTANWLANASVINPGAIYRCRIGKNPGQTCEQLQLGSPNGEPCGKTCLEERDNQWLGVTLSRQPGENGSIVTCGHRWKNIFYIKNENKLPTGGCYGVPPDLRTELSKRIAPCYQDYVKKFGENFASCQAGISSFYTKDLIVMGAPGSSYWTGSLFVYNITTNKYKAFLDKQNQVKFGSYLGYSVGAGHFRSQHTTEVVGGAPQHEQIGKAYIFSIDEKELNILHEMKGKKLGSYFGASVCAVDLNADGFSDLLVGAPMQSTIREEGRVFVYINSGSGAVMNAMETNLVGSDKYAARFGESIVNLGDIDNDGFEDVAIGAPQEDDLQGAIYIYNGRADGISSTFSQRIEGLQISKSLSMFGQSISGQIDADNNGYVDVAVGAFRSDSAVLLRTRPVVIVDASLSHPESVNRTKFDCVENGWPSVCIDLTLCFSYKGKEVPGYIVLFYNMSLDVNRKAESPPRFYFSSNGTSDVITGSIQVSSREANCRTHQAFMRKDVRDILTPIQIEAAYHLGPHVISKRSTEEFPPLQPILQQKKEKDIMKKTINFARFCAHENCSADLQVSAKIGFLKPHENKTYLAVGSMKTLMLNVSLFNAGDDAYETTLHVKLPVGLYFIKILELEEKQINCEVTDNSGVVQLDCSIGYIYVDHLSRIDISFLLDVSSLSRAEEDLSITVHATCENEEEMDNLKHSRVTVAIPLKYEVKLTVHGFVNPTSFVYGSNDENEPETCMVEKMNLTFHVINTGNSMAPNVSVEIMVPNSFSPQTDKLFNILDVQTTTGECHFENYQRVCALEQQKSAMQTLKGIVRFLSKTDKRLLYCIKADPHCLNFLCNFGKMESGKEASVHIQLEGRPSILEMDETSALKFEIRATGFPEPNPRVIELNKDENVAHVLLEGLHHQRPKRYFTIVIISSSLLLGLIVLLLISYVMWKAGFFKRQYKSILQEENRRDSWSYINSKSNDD
T1 sequence (P05556 21-798): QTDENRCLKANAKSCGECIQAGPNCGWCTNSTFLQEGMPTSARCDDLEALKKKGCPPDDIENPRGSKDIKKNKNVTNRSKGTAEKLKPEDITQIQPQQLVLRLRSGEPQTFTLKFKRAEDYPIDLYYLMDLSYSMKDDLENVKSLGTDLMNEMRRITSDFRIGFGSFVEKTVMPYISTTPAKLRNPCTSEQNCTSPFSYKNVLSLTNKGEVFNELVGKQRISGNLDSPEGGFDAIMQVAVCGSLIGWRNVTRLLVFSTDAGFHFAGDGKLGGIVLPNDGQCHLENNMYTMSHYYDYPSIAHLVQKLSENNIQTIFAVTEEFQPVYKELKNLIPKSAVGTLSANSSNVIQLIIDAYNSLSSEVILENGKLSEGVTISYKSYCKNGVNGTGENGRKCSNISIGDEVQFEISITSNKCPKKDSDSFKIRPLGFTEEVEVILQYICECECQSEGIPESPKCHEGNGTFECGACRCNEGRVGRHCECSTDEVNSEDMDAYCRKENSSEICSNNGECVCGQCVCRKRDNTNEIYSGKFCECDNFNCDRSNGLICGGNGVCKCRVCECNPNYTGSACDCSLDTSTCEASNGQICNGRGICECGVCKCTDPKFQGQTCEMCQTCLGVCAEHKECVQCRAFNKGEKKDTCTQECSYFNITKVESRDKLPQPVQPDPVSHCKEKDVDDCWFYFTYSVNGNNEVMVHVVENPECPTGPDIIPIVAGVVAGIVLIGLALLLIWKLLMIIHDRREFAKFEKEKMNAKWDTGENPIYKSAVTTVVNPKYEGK
Method: To this purpose, the ability of the best peptidomimetics to modulate cell adhesion mediated by integrins other than α4β1 was evaluated in HL60 cells, mainly expressing the leukocyte integrin αMβ2, and on K562 cells, mainly expressing α5β1, which shares a β1 subunit with the heterodimer α4β1. […] In contrast, 13 was a moderate promoter of cell adhesion mediated by αMβ2 integrin, behaving as an agonist. Regarding α5β1 integrin, none of the peptidomimetics employed were able to modulate K562 cell adhesion, thus being shown to be completely ineffective toward α5β1 integrin. The reference compound DS-70 was ineffective toward both αMβ2 and α5β1 integrins under the same experimental conditions (Table 3).
The assays were performed as previously described. Briefly, regarding adhesion assays on Jurkat E6.1 or HL-60 cells, black 96-well plates (Corning Costar) were coated overnight at 4 °C with FN or Fg (10 μg/mL) or VCAM-1 (2 μg/mL) in order to investigate α4β1 integrin-mediated cell adhesion. To avoid any kind of unspecific binding, plates were incubated with 100 μL/well of blocking solution (1% BSA in HBSS) for 30 min at 37 °C. Cells were counted, stained with the CellTracker green CMFDA (12.5 μM, 30 min at 37 °C, Life Technologies Italia, Milan, Italy) and after three washes, were preincubated with increasing concentrations of new compounds (10^−10–10^−4 M) or with the vehicle (methanol) for 30 min at 37 °C.
Then, cells were plated (500,000/well) on coated wells and incubated for 30 min at 37 °C. Afterwards nonadherent cells were removed via washing with a blocking solution, and the remaining adhered cells were lysed with 0.5% Triton X-100 in PBS (30 min at 4 °C). Green fluorescence was measured (Ex485 nm/Em535 nm) using an EnSpire Multimode Plate Reader (PerkinElmer, Waltham, MA, USA).
In both types of adhesion assay, the number of adherent cells was determined via comparison with a standard curve made in the same plate. Experiments were carried out in quadruplicate and repeated at least three times. Data analysis and EC50 or IC50 values were calculated using GraphPad Prism 9.5.1 (GraphPad Software, San Diego, CA, USA).

α4β1 integrin [2] = target: T1, α4β1 integrin; experiment: HUTS-21 monoclonal antibody binding (α4β1 integrin conformation), flow cytometry; conditions: Jurkat E6.1 cells; compounds 1–100 nM; FN 10 µg/mL; versus vehicle
Text: Integrin functions are regulated by a number of conformational changes in the protein itself. […] Conformational changes can be evaluated by using conformationally sensitive antibodies which specifically recognize epitopes exposed only in a defined structural conformation. To better depict peptidomimetics–α4β1 integrin interactions, we employed PE-conjugated HUTS-21 mAb that recognizes an epitope mapped to the hybrid domain of the β1 subunit.
Conversely, antagonists 3, 8, and 13, although binding to α4β1 integrin as previously shown, were not able to induce any conformational rearrangement, showing very low binding of HUTS-21 mAb.
Flow cytometry analysis was performed as previously described, with the following modifications. Jurkat E6.1 cells were resuspended in 1% BSA in HBSS (50,000 cells/sample); then, FN (10 μg/mL) and two concentrations of the best peptidomimetics (100–1 nM) were added to the cells for 30 min. Thereafter, phycoerythrin (PE)-conjugated, conformational-sensitive HUTS-21 mAb (PE mouse anti-human CD29 antibody, Becton Dickinson Italia, Milan, Italy) (20 μL/sample) was added for 45 min at room temperature; after two washes, Jurkat E6.1 cells were suspended in PBS, and 10,000 cells/sample were acquired in a Guava®EasyCyte Flow Cytometer. The data are presented as the mean fluorescence intensity (MFI). Data were normalized with the relative fluorescence for nonspecific binding evaluated by exposing the cells to an isotype control mAb set to 0.

JNK = experiment: Western blot, FN-induced JNK phosphorylation in Jurkat E6.1 cells; conditions: Jurkat E6.1 cells pre-treated with 10^−7, 10^−8, 10^−9 M, then FN (10 µg/mL) 30 min
Method: To this purpose, Jurkat E6.1 cells were pre-treated with different concentrations (10^−7, 10^−8, 10^−9 M) of the compounds and then exposed to FN (10 µg/mL) for 30 min. […] In addition, the effects observed on intracellular signaling were concentration-dependent, except for compound 13 on AKT activation.
Western blot analysis was performed as previously described, with the following modifications. […] For integrin antagonists, JurkatE6.1 cells were subsequently incubated with FN (10 μg/mL) at 37 °C for 30 min. At the end of the incubation period, Jurkat E6.1 cells were lysed on ice using T-PER® (Tissue Protein Extraction Reagent, Life Technologies Italia, Milan, Italy), supplemented with a phosphatase inhibitor cocktail. Protein extracts were quantified using a BCA Protein Assay (Pierce, Rockford, IL, USA). The proteins from the cytoplasmatic extract were denatured at 95 °C for 3 min, then equal amounts of protein samples (30–50 μg) were loaded and separated via 12% SDS-PAGE. Proteins were transferred onto a nitrocellulose membrane (Biorad, Hercules, CA, USA), which was blocked with 5% nonfat milk in a Tris-buffered saline (10 mM Tris-HCl, pH 8, containing 150 mM NaCl) containing 0.1% Tween 20 for 1 h at room temperature. Membranes were stained overnight at 4 °C with anti-actin antibody (1:5000, Merck Life Science, Milan, Italy) or with anti-phospho-ERK1/2, anti-total ERK1/2, anti-phospho-AKT, anti-total-AKT, or anti-phospho-JNK antibodies (1:1000; Cell Signaling Technology, Danvers, MA, USA). The membranes were incubated with anti-rabbit peroxidase-conjugated secondary antibodies at a dilution of 1:8000. Blots were developed with a SuperSignal West Pico chemiluminescent substrate. Protocols for digital image acquisition and analysis have previously been described.

CC(=O)N[C@@H](CNC(=O)Cc1ccc(NC(=O)Nc2ccccc2C)cc1)C(=O)NCC(=O)O [compound 3]
IC50 (α4β1 integrin [1]): 975 nM | binding of HUTS-21 mAb (MFI) (α4β1 integrin [2]): not able to increase the binding of HUTS-21 mAb | FN-induced JNK phosphorylation (JNK): did not counteract

CCCNC(=O)[C@@H](CC(=O)NCC(=O)O)NC(=O)Cc1ccc(NC(=O)Nc2ccccc2C)cc1 [compound 8]
IC50 (α4β1 integrin [1]): 54 nM | binding of HUTS-21 mAb (MFI) (α4β1 integrin [2]): not able to increase the binding of HUTS-21 mAb | FN-induced JNK phosphorylation (JNK): able to significantly prevent

Cc1ccccc1NC(=O)Nc1ccc(CNC(=O)C[C@@H](C)NC(=O)CC(=O)O)cc1 [compound 13]
IC50 (α4β1 integrin [1]): 879 nM | binding of HUTS-21 mAb (MFI) (α4β1 integrin [2]): not able to increase the binding of HUTS-21 mAb | FN-induced JNK phosphorylation (JNK): did not counteract
